Results reported in PubChem BioAssay AID256 (DTP/NCI, 2004).
“And” between values parts separate entries of the source, which are not always exact repeats. Identical values can stand only once. Inconclusive results and toxic doses are left out. Rule for the calls: active = survival T/C of 150% or more; inactive = T/C below 125% in these data.

System: CD2F1 mice, L1210 leukemia ip, survival T/C
Experiment: NCI In Vivo Anticancer Drug Screen. Data for tumor model L1210 Leukemia (intraperitoneal) in CD2F1 (CDF1) mice
Details: higher = longer survival
Procedure, shortened: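 Vehicle-treated tumor-bearing mice served as controls (C) for compound-treated mice (T). Reported figure is T divided by C.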

[1] = endpoint: mean survival time, dose: 100.0 mg/kg/injection, schedule: Q04DX002 (ip), vehicle: saline with Tween-80
[2] = endpoint: mean survival time, dose: 200.0 mg/kg/injection, schedule: Q04DX002 (ip), vehicle: saline with Tween-80
[3] = endpoint: mean survival time, dose: 12.5 mg/kg/injection, schedule: Q01DX001 (ip), vehicle: Klucel (hydroxypropylcellulose) (HPC)
[4] = endpoint: mean survival time, dose: 25.0 mg/kg/injection, schedule: Q01DX001 (ip), vehicle: Klucel (hydroxypropylcellulose) (HPC)
[5] = endpoint: mean survival time, dose: 100.0 mg/kg/injection, schedule: Q01DX001 (ip), vehicle: saline with Tween-80
[6] = endpoint: mean survival time, dose: 200.0 mg/kg/injection, schedule: Q01DX001 (ip), vehicle: saline with Tween-80
[7] = endpoint: mean survival time, dose: 400.0 mg/kg/injection, schedule: Q01DX001 (ip), vehicle: saline with Tween-80
[8] = endpoint: mean survival time, dose: 100.0 mg/kg/injection, schedule: Q01DX009 (ip), vehicle: saline with Tween-80
[9] = endpoint: mean survival time, dose: 100.0 mg/kg/injection, schedule: Q04DX003 (ip), vehicle: saline with Tween-80
[10] = endpoint: mean survival time, dose: 200.0 mg/kg/injection, schedule: Q04DX003 (ip), vehicle: saline with Tween-80
[11] = endpoint: mean survival time, dose: 400.0 mg/kg/injection, schedule: Q04DX003 (ip), vehicle: saline with Tween-80
[12] = endpoint: mean survival time, dose: 100.0 mg/kg/injection, schedule: Q01DX001 (ip), vehicle: saline
[13] = endpoint: mean survival time, dose: 200.0 mg/kg/injection, schedule: Q01DX001 (ip), vehicle: saline
[14] = endpoint: mean survival time, dose: 400.0 mg/kg/injection, schedule: Q01DX001 (ip), vehicle: saline
[15] = endpoint: mean survival time, dose: 100.0 mg/kg/injection, schedule: Q01DX009 (ip), vehicle: Klucel (hydroxypropylcellulose) (HPC)
[16] = endpoint: mean survival time, dose: 200.0 mg/kg/injection, schedule: Q01DX009 (ip), vehicle: Klucel (hydroxypropylcellulose) (HPC)
[17] = endpoint: mean survival time, dose: 400.0 mg/kg/injection, schedule: Q01DX009 (ip), vehicle: Klucel (hydroxypropylcellulose) (HPC)
[18] = endpoint: mean survival time, dose: 12.5 mg/kg/injection, schedule: Q01DX009 (ip), vehicle: Klucel (hydroxypropylcellulose) (HPC)
[19] = endpoint: mean survival time, dose: 25.0 mg/kg/injection, schedule: Q01DX009 (ip), vehicle: Klucel (hydroxypropylcellulose) (HPC)
[20] = endpoint: mean survival time, dose: 50.0 mg/kg/injection, schedule: Q01DX009 (ip), vehicle: Klucel (hydroxypropylcellulose) (HPC)
[21] = endpoint: mean survival time, dose: 200.0 mg/kg/injection, schedule: Q01DX009 (ip), vehicle: saline with Tween-80
[22] = endpoint: mean survival time, dose: 400.0 mg/kg/injection, schedule: Q01DX009 (ip), vehicle: saline with Tween-80

Measured: T/C

CCCCCCCCCCCCCCCCCCNC(=O)C[N+](C)(C)Cc1ccccc1
inactive: endpoint: mean survival time, dose: 6.25 mg/kg/injection, schedule: Q04DX003 (ip), vehicle: saline with Tween-80 103 % of control | endpoint: mean survival time, dose: 12.5 mg/kg/injection, schedule: Q04DX003 (ip), vehicle: saline with Tween-80 97 % of control

FC(F)(F)c1ccc(Cl)c(N=C=S)c1
inactive: [1] 104 % of control | [2] 93 % of control

OC1(O)CCN(Cc2ccccc2)CC1
inactive: endpoint: mean survival time, dose: 100.0 mg/kg/injection, schedule: Q04DX003 (ip), vehicle: acetone 94 % of control | endpoint: mean survival time, dose: 200.0 mg/kg/injection, schedule: Q04DX003 (ip), vehicle: acetone 96 % of control | endpoint: mean survival time, dose: 400.0 mg/kg/injection, schedule: Q04DX003 (ip), vehicle: acetone 94 % of control

O=C1C(n2ccc(=O)[nH]c2=O)CCN1CCO (stereo unspecified)
inactive: endpoint: mean survival time, dose: 100.0 mg/kg/injection, schedule: Q04DX003 (ip), vehicle: other 102 % of control | endpoint: mean survival time, dose: 200.0 mg/kg/injection, schedule: Q04DX003 (ip), vehicle: other 102 % of control | endpoint: mean survival time, dose: 400.0 mg/kg/injection, schedule: Q04DX003 (ip), vehicle: other 96 % of control

c1ccc(C[N+]23CCN(CC2)CC3)cc1
inactive: endpoint: mean survival time, dose: 12.5 mg/kg/injection, schedule: Q04DX003 (ip), vehicle: saline 98 % of control | endpoint: mean survival time, dose: 25.0 mg/kg/injection, schedule: Q04DX003 (ip), vehicle: saline 98 % of control | endpoint: mean survival time, dose: 50.0 mg/kg/injection, schedule: Q04DX003 (ip), vehicle: saline 101 % of control

CCCCCCCCCCSC(=N)N
inactive: endpoint: mean survival time, dose: 6.25 mg/kg/injection, schedule: Q01DX001 (ip), vehicle: Klucel (hydroxypropylcellulose) (HPC) 102 % of control | [3] 112 % of control | [4] 96 % of control

Cc1ccc(NC(=O)Oc2ccc(F)cc2Cl)cc1NC(=O)Oc1ccc(F)cc1Cl
inactive: [5] 103 % of control | [6] 101 % of control | [7] 95 % of control

CC1(O)C=CC(=O)C=C1
inactive: endpoint: median survival time, dose: 6.25 mg/kg/injection, schedule: Q01DX009 (ip), vehicle: water 91 % of control | endpoint: median survival time, dose: 12.5 mg/kg/injection, schedule: Q01DX009 (ip), vehicle: water 103 % of control | endpoint: median survival time, dose: 25.0 mg/kg/injection, schedule: Q01DX009 (ip), vehicle: water 122 % of control | endpoint: median survival time, dose: 50.0 mg/kg/injection, schedule: Q01DX009 (ip), vehicle: water 91 % of control

Cc1c(O)/c(=C\O)c2nc3c(=O)ccc(C(=O)NCCN(C)C)c3[nH]c2c1=O
inactive: endpoint: median survival time, dose: 12.5 mg/kg/injection, schedule: Q01DX005 (ip), vehicle: water 103 % of control and 110 % of control | endpoint: median survival time, dose: 18.0 mg/kg/injection, schedule: Q01DX005 (ip), vehicle: water 115 % of control | endpoint: median survival time, dose: 25.0 mg/kg/injection, schedule: Q01DX005 (ip), vehicle: water 114 % of control and 105 % of control

O=C(Nc1ccccc1O)/C(Cl)=C/Cl
inactive: [8] 104 % of control

CCCCCCCCn1nnnc1N
inactive: [3] 112 % of control | [4] 97 % of control | endpoint: mean survival time, dose: 50.0 mg/kg/injection, schedule: Q01DX001 (ip), vehicle: Klucel (hydroxypropylcellulose) (HPC) 104 % of control

CCCc1c(C)[nH]c2ccc(C)cc12
inactive: endpoint: mean survival time, dose: 50.0 mg/kg/injection, schedule: Q01DX009 (ip), vehicle: saline 102 % of control | endpoint: mean survival time, dose: 100.0 mg/kg/injection, schedule: Q01DX009 (ip), vehicle: saline 104 % of control | [9] 101 % of control | [10] 86 % of control

Cc1cc(Br)cnc1Cl
inactive: [5] 97 % of control | [9] 92 % of control | [6] 106 % of control | [10] 97 % of control | [7] 101 % of control | [11] 96 % of control

O=C(Sc1nc2ccccc2s1)c1ccccc1
inactive: [12] 95 % of control | [13] 97 % of control | [14] 115 % of control

CC(=O)N(C)c1ccc(NC(=O)Nc2ccc(C)cc2[N+](=O)[O-])cc1
inactive: [15] 95 % of control | [16] 92 % of control | [17] 92 % of control

OCC1c2ccc(Cl)cc2Nc2ccc(Cl)cc21 (stereo unspecified)
inactive: [9] 93 % of control | [10] 89 % of control | [11] 91 % of control

COc1cc(-c2[o+]c3cc(O)cc(O)c3cc2OC2OC(CO)C(O)C(O)C2O)cc(OC)c1O (stereo unspecified)
inactive: endpoint: mean survival time, dose: 25.0 mg/kg/injection, schedule: Q01DX009 (ip), vehicle: saline with Tween-80 94 % of control | endpoint: mean survival time, dose: 50.0 mg/kg/injection, schedule: Q01DX009 (ip), vehicle: saline with Tween-80 96 % of control | [8] 96 % of control

O=c1cc(-c2ccc3c(c2)OCO3)oc2ccccc12
inactive: endpoint: mean survival time, dose: 50.0 mg/kg/injection, schedule: Q01DX001 (ip), vehicle: saline 102 % of control | [12] 98 % of control | [13] 98 % of control | [14] 92 % of control

C=C[Si]12OCCN(CCO1)CCO2
inactive: [18] 97 % of control and 105 % of control | [19] 95 % of control and 96 % of control | [20] 92 % of control and 100 % of control | [15] 92 % of control and 94 % of control | [16] 88 % of control and 94 % of control | [17] 88 % of control and 95 % of control

CN1c2ccccc2N(C)c2ccccc21
inactive: [8] 94 % of control | [9] 101 % of control | [10] 98 % of control | [11] 96 % of control

OCC1OC(n2cnc3c(OC4CCCC4)ncnc32)C(O)C1O (stereo unspecified)
inactive: [12] 101 % of control | [13] 100 % of control | [14] 100 % of control

COc1cc(-c2ccncc2)nc(OC)n1
inactive: [1] 96 % of control | [2] 88 % of control

COc1cccc(CN2CCN(N)CC2)c1
inactive: [18] 98 % of control | [19] 97 % of control | [20] 97 % of control | [15] 92 % of control | [16] 97 % of control

CC(=O)N1NC2C(=O)N(C3CCCCC3)CC2C1c1ccc(N(C)C)cc1 (stereo unspecified)
inactive: [5] 100 % of control | [1] 103 % of control | [6] 100 % of control | [2] 100 % of control | [7] 100 % of control | endpoint: mean survival time, dose: 400.0 mg/kg/injection, schedule: Q04DX002 (ip), vehicle: saline with Tween-80 92 % of control

CC(=O)Oc1ccc(OC(C)=O)c2c1C(=O)C=CC2=O
inactive: endpoint: mean survival time, dose: 0.78 mg/kg/injection, schedule: Q04DX002 (ip), vehicle: alcohol 92 % of control | endpoint: mean survival time, dose: 3.12 mg/kg/injection, schedule: Q04DX002 (ip), vehicle: alcohol 86 % of control

Cc1c(C(=O)c2no[n+]([O-])c2C(=O)c2c(C)c([N+](=O)[O-])c(C)c([N+](=O)[O-])c2C)c(C)c([N+](=O)[O-])c(C)c1[N+](=O)[O-]
inactive: [8] 87 % of control | [9] 102 % of control | [21] 96 % of control | [10] 88 % of control | [22] 88 % of control | [11] 98 % of control

C1=[N+](c2ccccc2)CCN1c1ccccc1
inactive: endpoint: mean survival time, dose: 75.0 mg/kg/injection, schedule: Q01DX001 (ip), vehicle: saline 95 % of control | endpoint: mean survival time, dose: 150.0 mg/kg/injection, schedule: Q01DX001 (ip), vehicle: saline 98 % of control

CC(C)CC(=O)NC(C(=O)NC(C(=O)NC(CC(C)C)C(O)CC(=O)NC(C)C(=O)NC(CC(C)C)C(O)CC(=O)O)C(C)C)C(C)C (stereo unspecified)
inactive: endpoint: mean survival time, dose: 3.12 mg/kg/injection, schedule: Q01DX009 (ip), vehicle: Klucel (hydroxypropylcellulose) (HPC) 96 % of control | endpoint: mean survival time, dose: 6.25 mg/kg/injection, schedule: Q01DX009 (ip), vehicle: Klucel (hydroxypropylcellulose) (HPC) 100 % of control | [18] 96 % of control | [19] 100 % of control | [20] 94 % of control | [15] 97 % of control

NS(=O)(=O)c1cc2c(cc1Cl)NCNS2(=O)=O
inactive: [8] 98 % of control | [21] 98 % of control | [22] 96 % of control
